Patent EP0187355A1, “Process for preparing beta-lactam antibiotics” (E.R. Squibb & Sons, Inc., priority 1981, dated 1982)
Where a name gives a salt, the structure may show the parent alone. Read-outs that look alike come from different tables or passages of the source.

What was measured:
Assay in all cases: MIC, agar dilution
Type in all cases: cell-based
[1] = system: Enterobacter cloacae, 8236; details: Enterobacter cloacae, 8236, 18 h, K-10 agar, 10^4 CFU, 37°C
Protocol: (§1) The following methodology is used to determine the minimum inhibitory concentration (hereinafter referred to as MIC) of the […] of this invention.
(§2) The test organisms are grown in approximately 15-20 ml of Antibiotic Assay broth (Difco) by inoculating (in tubes) the broth with a loopful of the organism from a BHI (Difco) agar slant. The inoculated tubes are incubated at 37°C for 18 to 20 hours. These cultures are assumed to contain 10^9 colony forming units (hereinafter CFU) per milliliter. The cultures are diluted 1:100 to give a final inoculum level of 10^4 CFU; dilutions are made with K-10 broth^*.
(§3) The compounds are dissolved in the appropriate diluent at a concentration of 1000 µg/ml. Twofold dilutions are made in K-10 broth resulting in a range from 1000 µg/ml to 0.5 µg/ml. 1.5 ml of each dilution is placed into individual square petri dishes to which 13.5 ml of K-10 agar^** is added. The final drug concentration in the agar ranges from 100 µg/ml to 0.05 µg/ml. Organism growth control plates containing agar only are prepared and inoculated before and after the test plates. The organisms are applied to the agar surface of each plate with the Denley Multipoint Inoculator (which delivers approximately 0.001 ml of each organism) resulting in a final inoculum level of 10^4 CFU on the agar surface.
(§4) The MIC is the lowest concentration of compound inhibiting growth of the organism.
(§5) The number following each organism refers to the number of the organism in the collection of E. R. Squibb & Sons,.Inc., Princeton, New Jersey. […] The symbol "N.T." means not tested.

[2] = system: Streptococcus agalactiae, 9287; details: K-10 agar, 10^4 CFU, 37°C; for MIC: Streptococcus agalactiae, 9287, 18 h
Protocol: as §1, §2, §3, §4, §5

Micrococcus luteus, 2495 = details: Micrococcus luteus, 2495, 18 h, K-10 agar, 10^4 CFU, 37°C
Protocol: as §1, §2, §3, §4, §5

[3] = system: Pseudomonas aeruginosa, 9545; details: Pseudomonas aeruginosa, 9545, 18 h, K-10 agar, 10^4 CFU, 37°C
Protocol: as §1, §2, §3
(§6) The plates are incubated at 37 °C for 18 hours and the MIC's are determined. The MIC is the lowest concentration of compound inhibiting growth of the organism.
(§7) The tables that follow are tabulated results obtained when the B-lactams of this invention are tested against various organisms. The number following each organism refers to the number of the organism in the collection of E. R. Squibb & Sons,.Inc., Princeton, New Jersey. […] The symbol "N.T." means not tested.

[4] = system: Enterobacter aerogenes, 10078; details: Klebsiella aerogenes, 10078, 18 h
Protocol: as §1, §2, §3, §6, §7

[5] = system: Klebsiella pneumoniae, 9527; details: Klebsiella pneumoniae, 9527, 18 h, K-10 agar, 10^4 CFU, 37°C
Protocol: as §1, §2, §3, §6, §7

[6] = system: Acinetobacter calcoaceticus, 8333; details: Acinetobacter calcoaceticus, 8333, 18 h, K-10 agar, 10^4 CFU, 37°C
Protocol: as §1, §2, §3, §6, §7

Escherichia coli, 10896 = details: K-10 agar, 10^4 CFU, 37°C, 18 hours
Protocol: as §1, §2, §3, §6, §7

Salmonella typhosa, 1195 = details: Salmonella enterica, TYPHOSA, 18 h, K-10 agar, 10^4 CFU, 37°C
Protocol: as §1, §2, §3, §6, §7

Shigella sonnei, 8449 = details: K-10 agar, 10^4 CFU, 37°C; for MIC: Shigella sonnei, 8449, 18 h
Protocol: as §1, §2, §3, §6, §7

[7] = system: Klebsiella aerogenes, 10440; details: K-10 agar, 10^4 CFU, 37°C
Protocol: as §1, §2, §3, §6, §7

Escherichia coli, 8294 = details: Escherichia coli, 8294, 18 h, K-10 agar, 10^4 CFU, 37°C
Protocol: as §1, §2, §3, §6, §7

Escherichia coli, 10909 = details: K-10 agar, 10^4 CFU, 37°C, 18 hours
Protocol: as §1, §2, §3, §6, §7

Proteus mirabilis, 3855 = details: Proteus mirabilis, 3855, 18 h, K-10 agar, 10^4 CFU, 37°C
Protocol: as §1, §2, §3, §6, §7

[8] = system: Streptococcus faecalis, 9011
Protocol: as §1, §2, §3, §6, §7

[9] = system: Staphylococcus aureus, 2399; details: Staphylococcus aureus, 2399, 18 h
Protocol: as §1, §2, §3, §6, §7

Proteus rettgeri, 8479 = details: K-10 agar, 10^4 CFU, 37°C
Protocol: as §1, §2, §3, §6, §7

[10] = system: Staphylococcus aureus, 10165
Protocol: as §1, §2, §3, §6, §7

Escherichia coli, 10857 = details: Escherichia coli, 10857, 18 h, K-10 agar, 10^4 CFU, 37°C
Protocol: as §1, §2, §3, §6, §7

Proteus vulgaris, 9416 = details: K-10 agar, 10^4 CFU, 37°C
Protocol: as §1, §2, §3, §6, §7

[11] = system: Staphylococcus aureus, 1276
Protocol: as §1, §2, §3, §6, §7

[12] = system: Pseudomonas aeruginosa, 8329; details: K-10 agar, 10^4 CFU, 37°C
Protocol: as §1, §2, §3, §6, §7

[13] = system: Serratia marcescens, 9783; details: Serratia marcescens, 9783, 18 h, K-10 agar, 10^4 CFU, 37°C
Protocol: as §1, §2, §3, §6, §7

[14] = system: Staphylococcus aureus, 2400
Protocol: as §1, §2, §3, §6, §7

[15] = system: Citrobacter freundii, 9518; details: K-10 agar, 10^4 CFU, 37°C
Protocol: as §1, §2, §3, §6, §7

[16] = Enterobacter aerogenes, 10078, K-10 agar, 10^4 CFU, 37°C, 18 hours, read-out: M.I.C.
[17] = Enterococcus faecalis, Streptococcus faecalis, 9011, K-10 agar, 10^4 CFU, 37°C, 18 hours, read-out: M.I.C.
[18] = Providencia rettgeri, 18 hours, read-out: M.I.C.
[19] = Staphylococcus aureus, 10165, K-10 agar, 10^4 CFU, 37°C, 18 hours, read-out: M.I.C.
[20] = Staphylococcus aureus, 1276, K-10 agar, 10^4 CFU, 37°C, 18 hours, read-out: M.I.C.
[21] = Staphylococcus aureus, 2400, K-10 agar, 10^4 CFU, 37°C, 18 hours, read-out: M.I.C.
[22] = Klebsiella aerogenes, 10440, 18 h
[23] = Enterococcus faecalis, 9011, 18 h
[24] = Providencia rettgeri, 8479, 18 h
[25] = Staphylococcus aureus, 10165, 18 h
[26] = Staphylococcus aureus, 1276, 18 h
[27] = Pseudomonas aeruginosa, 8329, 18 h
[28] = Staphylococcus aureus, 2400, 18 h
[29] = Citrobacter freundii, 9518, 18 h

Row | Structure (SMILES) | MIC [1] | MIC ([2]; read-out: M.I.C.) | MIC (Micrococcus luteus, 2495; read-out: M.I.C.) | MIC ([3]; read-out: M.I.C.) | MIC [4, 16] | MIC ([5]; read-out: M.I.C.) | MIC ([6]; read-out: M.I.C.) | MIC (Escherichia coli, 10896) | MIC (Salmonella typhosa, 1195) | MIC (Shigella sonnei, 8449) | MIC ([7]; 18 hours, read-out: M.I.C.) | MIC (Escherichia coli, 8294) | MIC (Escherichia coli, 10909) | MIC (Proteus mirabilis, 3855; read-out: M.I.C.) | MIC [8, 17] | MIC (Proteus rettgeri, 8479; [18]) | MIC [10, 19] | MIC (Escherichia coli, 10857) | MIC (Proteus vulgaris, 9416; 18 hours, read-out: M.I.C.) | MIC [11, 20] | other results
1 | CC1C(NC(=O)OCc2ccccc2)C(=O)N1S(=O)(=O)O (racemic) [Example 1, (±―cis)-4-Methyl-2-oxo-3-[[(phenylmethoxy)carbonyl]-amino]-1-azetidinesulfonic acid, potassium salt] | > 100 µg/mL | 100 µg/mL | > 100 µg/mL | > 100 µg/mL | > 100 µg/mL | > 100 µg/mL | > 100 µg/mL | > 100 µg/mL | > 100 µg/mL | > 100 µg/mL | > 100 µg/mL | > 100 µg/mL | > 100 µg/mL | > 100 µg/mL | > 100 µg/mL | > 100 µg/mL | 100 µg/mL | > 100 µg/mL | > 100 µg/mL | 100 µg/mL | MIC ([9]; Staphylococcus aureus, 2399, K-10 agar, 10^4 CFU, 37°C, 18 hours, read-out: M.I.C.): 50 µg/mL; MIC ([12]; 18 hours, read-out: M.I.C.): > 100 µg/mL; MIC ([13]; read-out: M.I.C.): > 100 µg/mL; MIC [14, 21]: 50 µg/mL; MIC ([15]; 18 hours, read-out: M.I.C.): > 100 µg/mL
2 | CC1C(NC(=O)C(=NOC(C)(C)C(=O)O)c2csc(N)n2)C(=O)N1S(=O)(=O)O (stereo not drawn) [Example 6, [3S-[3α (Z) ,4β]]3-[[(2-Amino-4-thiazolyl) [[1-carboxy-1-methylethoxy)imino]acetyl)amino)-4-methyl-2-oxo-1-azetidinesulfonic acid, dipotassium salt] | – | – | – | – | – | – | – | 0.2 µg/mL | < 0.05 µg/mL | 0.2 µg/mL | – | 0.4 µg/mL | < 0.05 µg/mL | – | – | – | – | < 0.05 µg/mL | – | – | MIC [2]: 50 µg/mL; MIC [3]: 0.8 µg/mL; MIC [4]: 0.4 µg/mL; MIC [5]: < 0.05 µg/mL; MIC [6]: 100 µg/mL; MIC [7, 22]: 0.4 µg/mL; MIC (Proteus mirabilis, 3855): < 0.05 µg/mL; MIC [8, 23]: > 100 µg/mL; MIC [9]: > 100 µg/mL; MIC (Proteus rettgeri, 8479; [24]): < 0.05 µg/mL; MIC [10, 25]: > 100 µg/mL; MIC (Proteus vulgaris, 9416; Proteus vulgaris, 9416, 18 h): < 0.05 µg/mL; MIC [11, 26]: > 100 µg/mL; MIC [12, 27]: 3.1 µg/mL; MIC [13]: 0.2 µg/mL; MIC [14, 28]: > 100 µg/mL; MIC [15, 29]: 0.4 µg/mL
3 | CC1C(NC(=O)C(=NO)c2csc(N)n2)C(=O)N1S(=O)(=O)O (stereo not drawn) [Example 13, [3S-[3α(Z),4β]]-3-[[(2-amino-4-thiazolyl)-(hydroxyimino)acetyl]amino]-4-methyl-2-oxo-1-azetidinesulfonic acid, potassium salt] | 1.6 µg/mL | 25 µg/mL | 3.1 µg/mL | 6.3 µg/mL | 3.1 µg/mL | 1.6 µg/mL | 12.5 µg/mL | 1.6 µg/mL | 0.8 µg/mL | 1.6 µg/mL | 1.6 µg/mL | 1.6 µg/mL | 0.8 µg/mL | 1.6 µg/mL | > 100 µg/mL | 0.1 µg/mL | 25 µg/mL | 1.6 µg/mL | 0.8 µg/mL | 25 µg/mL | MIC ([12]; 18 hours, read-out: M.I.C.): > 100 µg/mL; MIC ([13]; read-out: M.I.C.): 0.8 µg/mL; MIC [14, 21]: 12.5 µg/mL; MIC ([15]; 18 hours, read-out: M.I.C.): 0.8 µg/mL
4 | C[C@@H]1[C@H](NC(=O)/C(=N\OC(C)(C)C(=O)O)c2csc(N)n2)C(=O)N1S(=O)(=O)O [Example 16, [3α(Z),4α]-3-[[(2-Amino-4-thiazolyl) [(1-carboxy-1-methylethoxy)imino]acetyl]amino]-4-methyl-2-oxo-l-azetidinesulfonic acid, potassium salt (1:2)] | – | – | – | – | – | – | – | 0.2 µg/mL | < 0.05 µg/mL | – | – | 0.4 µg/mL | < 0.05 µg/mL | – | – | – | – | 0.2 µg/mL | – | – | M.I.C. ([2]; 18 hours): 50 µg/mL; MIC (Micrococcus luteus, 2495): 25 µg/mL; MIC [3]: 0.8 µg/mL; MIC [4]: 0.8 µg/mL; MIC [5]: 0.1 µg/mL; MIC [6]: 50 µg/mL; M.I.C. (Shigella sonnei, 8449; 18 hours): 0.4 µg/mL; MIC [7, 22]: 0.8 µg/mL; MIC (Proteus mirabilis, 3855): < 0.05 µg/mL; MIC [8, 23]: > 100 µg/mL; MIC [9]: > 100 µg/mL; MIC (Proteus rettgeri, 8479; [24]): < 0.05 µg/mL; MIC [10, 25]: > 100 µg/mL; MIC (Proteus vulgaris, 9416; Proteus vulgaris, 9416, 18 h): < 0.05 µg/mL; MIC [11, 26]: > 100 µg/mL; MIC [12, 27]: 3.1 µg/mL; MIC [13]: 0.4 µg/mL; MIC [14, 28]: > 100 µg/mL; MIC [15, 29]: 0.8 µg/mL
